Like-named read-outs stand apart in the source and are kept apart here.
Legend:
OVCAR-8 = assay: Compound activity in OVCAR-8 cell line; assay type: cell-based; details: for IC50: OVCAR-8, read-out: OVCAR-8 IC50 (nM) ± SD
NCI/ADR-RES = assay: Compound activity in a P-gp overexpressing cell line NCI/ADR-RES; assay type: cell-based; details: for IC50: P-gp overexpressing cell line
MCF-7/TAX Pgp = assay: MCF-7/TAX (Pgp) cell activity; assay type: cell-based; details: for EC50: Homo sapiens, MCF7
MCF-7-TUBB3 β3-tubulin = assay: MCF-7-TUBB3 (β3-tubulin) cell activity; assay type: cell-based
MCF-7 WT = MCF-7 WT cell activity; assay type: cell-based; details: Homo sapiens, MCF7
MIA PaCa-2 = MIA PaCa-2 cell line activity; assay type: cell-based; details: Table 2, read-out: MIA PaCa-2 (nM ± SD)
tubulin = tubulin (Bos taurus, UniProt P81947+Q6B856); assay: Inhibition of [3H]colchicine binding to tubulin
[1] = Homo sapiens, NCI/ADR-RES, Table 1, read-out: NCl/ADR-RES IC50 (nM) ± SD
[2] = Homo sapiens, NCI/ADR-RES, Table 2, read-out: NCI/ADR-RES IC50 (nM) ± SD

tubulin, sequence (Q6B856 whole entry): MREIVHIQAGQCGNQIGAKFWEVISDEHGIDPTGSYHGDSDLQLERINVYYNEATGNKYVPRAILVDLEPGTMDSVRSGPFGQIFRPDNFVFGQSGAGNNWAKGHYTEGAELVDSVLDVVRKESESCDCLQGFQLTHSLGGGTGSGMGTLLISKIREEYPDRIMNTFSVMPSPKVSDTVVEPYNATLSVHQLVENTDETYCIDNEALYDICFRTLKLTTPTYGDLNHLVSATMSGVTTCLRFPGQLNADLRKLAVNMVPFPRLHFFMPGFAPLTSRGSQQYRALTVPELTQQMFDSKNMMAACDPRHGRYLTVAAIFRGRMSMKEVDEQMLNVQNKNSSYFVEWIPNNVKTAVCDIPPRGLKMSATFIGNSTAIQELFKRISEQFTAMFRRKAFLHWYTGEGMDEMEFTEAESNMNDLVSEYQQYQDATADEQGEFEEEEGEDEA
tubulin, sequence (P81947 whole entry): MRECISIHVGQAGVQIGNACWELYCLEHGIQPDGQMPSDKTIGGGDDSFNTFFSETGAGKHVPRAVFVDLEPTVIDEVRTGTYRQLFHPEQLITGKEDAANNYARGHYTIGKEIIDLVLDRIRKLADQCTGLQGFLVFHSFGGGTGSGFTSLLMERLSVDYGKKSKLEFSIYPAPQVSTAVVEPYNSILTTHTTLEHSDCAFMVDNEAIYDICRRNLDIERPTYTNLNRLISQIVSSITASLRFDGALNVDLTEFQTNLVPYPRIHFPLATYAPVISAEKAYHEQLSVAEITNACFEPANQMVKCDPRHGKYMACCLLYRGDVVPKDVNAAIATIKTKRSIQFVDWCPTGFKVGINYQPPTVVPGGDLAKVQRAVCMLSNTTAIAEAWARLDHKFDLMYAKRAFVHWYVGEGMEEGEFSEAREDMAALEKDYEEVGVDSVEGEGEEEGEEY

Structure (SMILES) | EC50 (MCF-7/TAX Pgp) [nM] | EC50 (MCF-7-TUBB3 β3-tubulin) [nM] | EC50 (MCF-7 WT) [nM] | IC50 (OVCAR-8; Homo sapiens, Table 1) [nM] | IC50 (NCI/ADR-RES; [1]) [nM] | IC50 (NCI/ADR-RES; [2]) [nM] | RESISTANCE RATIO Pgp/WT (MCF-7/TAX Pgp; MCF-7/TAX vs MCF-7 WT) | RESISTANCE RATIO β3-tubulin/WT (MCF-7-TUBB3 β3-tubulin; MCF-7-TUBB3 vs MCF-7 WT) | also measured
COc1ccc(/C=C\c2cc(OC)c(OC)c(OC)c2)cc1O [CS-A4, Combretastatin A-4, reference compound] | – | – | – | – | – | – | – | – | IC50 (OVCAR-8; Table 1): 3.5 ± 0.7 nM; IC50 (OVCAR-8; Table 2): 3.5 ± 0.7 nM; IC50 (NCI/ADR-RES; Table 1, read-out: NCl/ADR-RES IC50 (nM) ± SD): 2.3 ± 0.4 nM; IC50 (NCI/ADR-RES; Table 2, read-out: NCI/ADR-RES IC50 (nM) ± SD): 2.3 ± 0.4 nM
COc1ccc(N(C)c2nc(Cl)nc3cnn(C)c23)cc1 [Compound 4, 5-chloro-N-(4-methoxyphenyl)-N,1-dimethyl-1H-pyrazolo[4,3-d]pyrimidin-7-amine] | 15.1 ± 2 | 3.3 ± 0.4 | 2 ± 0.3 | 9 ± 0.7 | 5 | 5 | 3.8 | 1.1 | IC50 (MIA PaCa-2; Homo sapiens): 22.7 ± 1.13 nM
COc1ccc2c(c1)CCCN2c1nc(Cl)nc2cnn(C)c12 [Compound 6, 1-(5-chloro-1-methyl-1H-pyrazolo[4,3-d]pyrimidin-7-yl)-6-methoxy-1,2,3,4-tetrahydroquinoline] | – | – | – | 17 ± 2 | 8 ± 0.7 | 8 ± 0.7 | – | – | IC50 (MIA PaCa-2; Homo sapiens): 48 ± 2.77 nM
COc1ccc(N(C)c2nc(Cl)nc3cnn(C)c23)cc1F [Compound 6d7, 5-chloro-N-(3-fluoro-4-methoxyphenyl)-N,1-dimethyl-1H-pyrazolo[4,3-d]pyrimidin-7-amine] | 8.1 ± 0.2 | 2.6 ± 0.4 | 1.7 ± 0.2 | – | – | 7 ± 3 | 4.8 | 1.6 | IC50 (OVCAR-8; Homo sapiens, Table 2): 9 ± 1 nM
Nc1ccn([C@@H]2O[C@H](CO)[C@@H](O)C2(F)F)c(=O)n1 [GEM, reference compound] | – | – | – | – | – | – | – | – | IC50 (MIA PaCa-2): 297 nM
Nc1nc2[nH]cc(CCc3ccc(C(=O)N[C@@H](CCC(=O)O)C(=O)O)cc3)c2c(=O)[nH]1 [PMX, reference compound] | – | – | – | – | – | – | – | – | IC50 (MIA PaCa-2): 16.1 ± 1.4 nM
CC(=O)O[C@H]1C(=O)[C@@]2(C)[C@H]([C@H](OC(=O)c3ccccc3)[C@]3(O)C[C@H](OC(=O)[C@H](O)[C@@H](NC(=O)c4ccccc4)c4ccccc4)C(C)=C1C3(C)C)[C@]1(OC(C)=O)CO[C@@H]1C[C@@H]2O [Paclitaxel, reference compound] | 3220 | 2070 | 194 | 7 ± 2 | > 5000 | > 5000 | – | – | […] Pgp/WT (MCF-7/TAX Pgp; MCF-7/TAX vs MCF-7 WT): 16.6; […] β3-tubulin/WT (MCF-7-TUBB3 β3-tubulin; MCF-7-TUBB3 vs MCF-7 WT): 10.6

Further lines, with some results ahead:

EC50 (MCF-7/TAX Pgp) [nM] | EC50 (MCF-7-TUBB3 β3-tubulin) [nM] | EC50 (MCF-7 WT) [nM] | IC50 (OVCAR-8; Homo sapiens, Table 1) [nM] | IC50 (NCI/ADR-RES; [1]) [nM] | IC50 (NCI/ADR-RES; [2]) [nM] | Structure (SMILES) | RESISTANCE RATIO Pgp/WT (MCF-7/TAX Pgp; MCF-7/TAX vs MCF-7 WT) | RESISTANCE RATIO β3-tubulin/WT (MCF-7-TUBB3 β3-tubulin; MCF-7-TUBB3 vs MCF-7 WT) | also measured
– | – | – | 31 ± 2 | 17 ± 3 | 17 ± 3 | CSc1ccc(N(C)c2nc(Cl)nc3cnn(C)c23)cc1 [Compound 5, 5-chloro-N,1-dimethyl-N-(4-(methylthio)phenyl)-1H-pyrazolo[4,3-d]pyrimidin-7-amine] | – | – | IC50 (MIA PaCa-2; Homo sapiens): 20.9 ± 0.651 nM
43 ± 7.2 | 16.8 ± 1.5 | 35.2 ± 4.7 | 14 ± 3 | 11 ± 0.7 | 11 ± 0.7 | COc1cccc2cc(N(C)c3nc(Cl)nc4cnn(C)c34)ccc12 [Compound 7, 5-chloro-N-(5-methoxynaphthalen-2-yl)-N,1-dimethyl-1H-pyrazolo[4,3-d]pyrimidin-7-amine] | 1.2 | 0.5 | –
31.3 ± 3.5 | 9.7 ± 1 | 7.7 ± 0.7 | 2 ± 1 | 4 ± 1 | 4 ± 1 | CCOc1ccc(N(C)c2nc(Cl)nc3cnn(C)c23)cc1 [Compound 8, 5-chloro-N-(4-ethoxyphenyl)-N,1-dimethyl-1H-pyrazolo[4,3-d]pyrimidin-7-amine] | 4.0 | 1.3 | fold improvement of OVCAR-8 cell line activity (OVCAR-8; over compound 4): around 4 fold
– | – | – | 49 ± 10 | 44 ± 8 | 44 ± 8 | CC(C)Oc1ccc(N(C)c2nc(Cl)nc3cnn(C)c23)cc1 [Compound 9, 5-chloro-N-(4-isopropoxyphenyl)-N,1-dimethyl-1H-pyrazolo[4,3-d]pyrimidin-7-amine] | – | – | –
– | – | – | 880 ± 40 | 730 ± 100 | 730 ± 100 | CN(c1ccc(OC(F)(F)F)cc1)c1nc(Cl)nc2cnn(C)c12 [Compound 10, 5-chloro-N,1-dimethyl-N-(4-(trifluoromethoxy)phenyl)-1H-pyrazolo[4,3-d]pyrimidin-7-amine] | – | – | –
– | – | – | > 5000 | > 5000 | – | COc1ccc(Nc2nc(Cl)nc3cnn(C)c23)cc1 [Compound 11, 5-chloro-N-(4-methoxyphenyl)-1-methyl-1H-pyrazolo[4,3-d]pyrimidin-7-amine] | – | – | activity in OVCAR-8 cell line (OVCAR-8): not active; activity in NCI/ADR-RES cell line (NCI/ADR-RES): not active; colchicine inhibition (tubulin): did not show colchicine inhibition
